We go through 1 sequence from patent US9079973B2, “Natriuretic polypeptides for reducing restenosis” (Mayo Foundation for Medical Education and Research, priority 2008, dated 2015).

For data set [1] the following is noted: cited from earlier work.
The test system of data set [2] is human aortic vascular smooth muscle cells (HAoSMC). Description: HAoSMC proliferation (BrdU uptake). It is filed as cell-based. To be noted: serum-supplemented media (5%), 24 hours.

GLSKGCFGLKLDRIGSMSGLGC [CNP]: the “half-life after administration to a mammal” value in data set [1] is “about a minute and a half”. Moreover, the values for the reduced proliferation result in data set [2] (10^−5 M NP), in data set [2] (10^−6 M NP) and in data set [2] (10^−7 M NP) were “about 30%”, “about 20%” and “about 20%”, respectively.
